Test results published in patent US8354416B2 (Glaxo Group Limited, priority 2005, dated 2013).

Tested on: influx of neutrophils to the lung in LPS-challenged rats
Assay: Rat LPS neutrophilia model
Assay type: in vivo
Settings: intratracheal, LPS aerosol 100 ug/ml, in at least one of the range of conditions tested, significance p<0.05
Experimental: Rat LPS Neutrophilia Model
The effect of compounds on the influx of neutrophils to the lung in LPS-challenged rats is evaluated as follows. The test compound is suspended in one of the following solutions: 0.5% tween 80/PBS, 0.5% tween 80/saline, 10% EtOH/saline (with pH adjusted to 2.0, or 8.0 with HCl, or unadjusted), Saline (pH 2.0, 6.5 or 8.0, 0.5% Tragacanth, 1% DMSO/20% Encapsin/Saline, or acidified 5% Tragacanth. The suspension process may be aided by the use of a glass homogenizer. For intratracheal administration, the animals are anesthetized with inhaled isoflurane and placed in a supine position, the trachea is intubated with a steel gavage needle (1.5 inch, 22 gauge, small ball) or a Penn-Century Microsprayer Aerosolizer (model IA-1B) and 200 ul of dosing solution is delivered. The animals are visually monitored during the recovery process, which typically occurs within two minutes. It is noted that the test compounds may be alternatively administered via the microsprayer in a dry powder blend with a suitable excipient, such as lactose.
Rats treated with compound or vehicle (15 min-24 hours pretreatment) are exposed to an LPS aerosol (100 ug/ml) for 15 min. Four hours later the rats are euthanized with pentobarbital (100 mg/kg, i.p.) and the airways are lavaged with 5 washes of 5 ml of phosphate buffered saline. The harvested cells are stained (Diffquick) and counted to determine total and differential cell data. […] Inhibition of neutrophil levels relative to no compound controls is calculated based on the differential counts.
The data is obtained as % inhibition using a particular concentration and pretreat time.

Row | Structure (SMILES) | inhibition of neutrophilia (neutrophil levels in airway lavage relative to no compound controls)
1 | Cc1ccc(C(=O)Nc2nccs2)cc1-c1nc(N(C)CCCN(C)C)nc2c1ccc(=O)n2-c1c(F)cccc1F [Example 107, 3-{8-(2,6-difluorophenyl)-2-[[3-(dimethylamino)propyl](methyl)amino]-7-oxo-7,8-dihydropyrido[2,3-d]pyrimidin-4-yl}-4-methyl-N-1,3-thiazol-2-ylbenzamide] | statistically significant inhibition of neutrophilia
2 | CCN(CC)CCCNc1nc(-c2cc(C(=O)NC)ccc2C)c2ccc(=O)n(-c3c(F)cccc3F)c2n1 [Example 119, 3-[2-{[3-(diethylamino)propyl]amino}-8-(2,6-difluorophenyl)-7-oxo-7,8-dihydropyrido[2,3-d]pyrimidin-4-yl]-N,4-dimethylbenzamide] | statistically significant inhibition of neutrophilia
3 | Cc1ccc(NC(=O)c2ccsc2)cc1-c1nc(N2CCC(N)CC2)nc2c1ccc(=O)n2-c1c(F)cccc1F [Example 32, N-{3-[2-(4-amino-1-piperidinyl)-8-(2,6-difluorophenyl)-7-oxo-7,8-dihydropyrido[2,3-d]pyrimidin-4-yl]-4-methylphenyl}-3-thiophenecarboxamide] | statistically nonsignificant inhibition of neutrophilia
4 | CCCNC(=O)c1ccc(C)c(-c2nc(NCCNC)nc3c2ccc(=O)n3-c2c(F)cccc2F)c1 [56(d), 3-(8-(2,6-difluorophenyl)-2-{[2-(methylamino)ethyl]amino}-7-oxo-7,8-dihydropyrido[2,3-d]pyrimidin-4-yl)-4-methyl-N-propylbenzamide] | statistically significant inhibition of neutrophilia
5 | Cc1ccc(C(=O)NC(C)C)cc1-c1nc(N(C)CCCN(C)C)nc2c1ccc(=O)n2-c1c(F)cccc1F [Example 34, 3-{8-(2,6-difluorophenyl)-2-[[3-(dimethylamino)propyl](methyl)amino]-7-oxo-7,8-dihydropyrido[2,3-d]pyrimidin-4-yl}-4-methyl-N-(1-methylethyl)benzamide] | statistically significant inhibition of neutrophilia
6 | Cc1ccc(C(=O)Nc2ccc(F)cc2)cc1-c1nc(NCCN(C)C(=O)OC(C)(C)C)nc2c1ccc(=O)n2-c1c(F)cccc1F [Example 95, 1,1-dimethylethyl (2-{[8-(2,6-difluorophenyl)-4-(5-{[(4-fluorophenyl)amino]carbonyl}-2-methylphenyl)-7-oxo-7,8-dihydropyrido[2,3-d]pyrimidin-2-yl]amino}ethyl)methylcarbamate] | statistically nonsignificant inhibition of neutrophilia
7 | Cc1ccc(C(=O)NC2CCCC2)cc1-c1nc(N2CCC(N3CCC(C)CC3)CC2)nc2c1ccc(=O)n2-c1c(F)cccc1F [Example 169, N-cyclopentyl-3-[8-(2,6-difluorophenyl)-2-(4-methyl-1,4′-bipiperidin-1′-yl)-7-oxo-7,8-dihydropyrido[2,3-d]pyrimidin-4-yl]-4-methylbenzamide] | statistically nonsignificant inhibition of neutrophilia
8 | Cc1ccc(C(=O)NCCc2ccccc2)cc1-c1nc(NC2CC(C)(C)NC(C)(C)C2)nc2c1ccc(=O)n2-c1c(F)cccc1F [Example 28, 3-{8-(2,6-difluorophenyl)-7-oxo-2-[(2,2,6,6-tetramethyl-4-piperidinyl)amino]-7,8-dihydropyrido[2,3-d]pyrimidin-4-yl}-4-methyl-N-(2-phenylethyl)benzamide] | statistically nonsignificant inhibition of neutrophilia
9 | CCCNCCNc1nc(-c2cc(C(=O)NC3CC3)ccc2C)c2ccc(=O)n(-c3c(F)cccc3F)c2n1 [Example 24, N-cyclopropyl-3-(8-(2,6-difluorophenyl)-7-oxo-2-{[2-(propylamino)ethyl]amino}-7,8-dihydropyrido[2,3-d]pyrimidin-4-yl)-4-methylbenzamide] | statistically nonsignificant inhibition of neutrophilia
10 | Cc1ccc(C(=O)Nc2nccs2)cc1-c1nc(N2CCC(N)CC2)nc2c1ccc(=O)n2-c1c(F)cccc1F [Example 73, 3-[2-(4-amino-1-piperidinyl)-8-(2,6-difluorophenyl)-7-oxo-7,8-dihydropyrido[2,3-d]pyrimidin-4-yl]-4-methyl-N-1,3-thiazol-2-ylbenzamide] | statistically significant inhibition of neutrophilia
11 | CNCCNc1nc(-c2cc(C(=O)NC3CCCC3)ccc2C)c2ccc(=O)n(-c3c(F)cccc3F)c2n1 [Example 58, N-cyclopentyl-3-(8-(2,6-difluorophenyl)-2-{[2-(methylamino)ethyl]amino}-7-oxo-7,8-dihydropyrido[2,3-d]pyrimidin-4-yl)-4-methylbenzamide] | statistically significant inhibition of neutrophilia
12 | CNCCNc1nc(-c2cc(C(=O)NC(C)C)ccc2C)c2ccc(=O)n(-c3c(F)cccc3F)c2n1 [Example 57, 3-(8-(2,6-difluorophenyl)-2-{[2-(methylamino)ethyl]amino}-7-oxo-7,8-dihydropyrido[2,3-d]pyrimidin-4-yl)-4-methyl-N-(1-methylethyl)benzamide] | statistically significant inhibition of neutrophilia
13 | Cc1ccc(C(=O)NCC(F)(F)F)cc1-c1nc(N2CCC(N3CCC(C)CC3)CC2)nc2c1ccc(=O)n2-c1c(F)cccc1F [Example 172, 3-[8-(2,6-difluorophenyl)-2-(4-methyl-1,4′-bipiperidin-1′-yl)-7-oxo-7,8-dihydropyrido[2,3-d]pyrimidin-4-yl]-4-methyl-N-(2,2,2-trifluoroethyl)benzamide] | inactive
14 | Cc1ccc(C(=O)Nc2nccs2)cc1-c1nc(NCCCNC(C)(C)C)nc2c1ccc(=O)n2-c1c(F)cccc1F [Example 102, 3-[8-(2,6-difluorophenyl)-2-({3-[(1,1-dimethylethyl)amino]propyl}amino)-7-oxo-7,8-dihydropyrido[2,3-d]pyrimidin-4-yl]-4-methyl-N-1,3-thiazol-2-ylbenzamide] | statistically nonsignificant inhibition of neutrophilia
15 | CCCNC(=O)c1ccc(C)c(-c2nc(N3CCC(N)CC3)nc3c2ccc(=O)n3-c2c(F)cccc2F)c1 [Example 69, 3-[2-(4-amino-1-piperidinyl)-8-(2,6-difluorophenyl)-7-oxo-7,8-dihydropyrido[2,3-d]pyrimidin-4-yl]-4-methyl-N-propylbenzamide] | statistically significant inhibition of neutrophilia
16 | CCCNC(=O)c1cc(F)c(C)c(-c2nc(NCCCN(CC)CC)nc3c2ccc(=O)n3-c2c(F)cccc2F)c1 [Example 181, 3-[2-{[3-(diethylamino)propyl]amino}-8-(2,6-difluorophenyl)-7-oxo-7,8-dihydropyrido[2,3-d]pyrimidin-4-yl]-5-fluoro-4-methyl-N-propylbenzamide] | statistically nonsignificant inhibition of neutrophilia
17 | CCN(CC)CCCNc1nc(-c2cc(C(=O)NCC3CCCCC3)ccc2C)c2ccc(=O)n(-c3c(F)cccc3F)c2n1 [Example 135, N-(cyclohexylmethyl)-3-[2-{[3-(diethylamino)propyl]amino}-8-(2,6-difluorophenyl)-7-oxo-7,8-dihydropyrido[2,3-d]pyrimidin-4-yl]-4-methylbenzamidetrifluoroacetate] | inactive
18 | Cc1ccc(C(=O)NC2CC2)cc1-c1nc(N2CCC(N)CC2)nc2c1ccc(=O)n2-c1c(F)cccc1F [Example 22, 3-[2-(4-amino-1-piperidinyl)-8-(2,6-difluorophenyl)-7-oxo-7,8-dihydropyrido[2,3-d]pyrimidin-4-yl]-N-cyclopropyl-4-methylbenzamide] | statistically significant inhibition of neutrophilia
19 | CCC(C)NC(=O)c1ccc(C)c(-c2nc(NCCCN(CC)CC)nc3c2ccc(=O)n3-c2c(F)cccc2F)c1 (centres unmarked) [Example 162, 3-[2-{[3-(diethylamino)propyl]amino}-8-(2,6-difluorophenyl)-7-oxo-7,8-dihydropyrido[2,3-d]pyrimidin-4-yl]-4-methyl-N-(1-methylpropyl)benzamide] | statistically nonsignificant inhibition of neutrophilia
20 | Cc1ccc(C(=O)NCc2ccccc2)cc1-c1nc(NCc2ncc[nH]2)nc2c1ccc(=O)n2-c1c(F)cccc1F [Example 77, 3-{8-(2,6-difluorophenyl)-2-[(1H-imidazol-2-ylmethyl)amino]-7-oxo-7,8-dihydropyrido[2,3-d]pyrimidin-4-yl}-4-methyl-N-(phenylmethyl)benzamide] | statistically significant inhibition of neutrophilia
